Read-outs that look alike come from different tables or passages of the source.
Experiments:
Test in all cases: SPR (Biacore T200), SBP immobilised on CM5
Details in all cases: 25°C, 20 mM phosphate/citrate pH 6.5, 150 mM NaCl, 0.005% Tween 20
BpAXBP3 = target: T1, BpAXBP3 (Bifidobacterium pseudocatenulatum, UniProt A0ABY6YA63); assay type: binding
T1 construct: gene msmE_1; predicted signal peptide removed, N-terminal His tag (pCold I), E. coli BL21; primers encode native start KDDKTITFW after IEGRH linker and end AASKG; immobilised on CM5 chip
T1 sequence (A0ABY6YA63 29-424): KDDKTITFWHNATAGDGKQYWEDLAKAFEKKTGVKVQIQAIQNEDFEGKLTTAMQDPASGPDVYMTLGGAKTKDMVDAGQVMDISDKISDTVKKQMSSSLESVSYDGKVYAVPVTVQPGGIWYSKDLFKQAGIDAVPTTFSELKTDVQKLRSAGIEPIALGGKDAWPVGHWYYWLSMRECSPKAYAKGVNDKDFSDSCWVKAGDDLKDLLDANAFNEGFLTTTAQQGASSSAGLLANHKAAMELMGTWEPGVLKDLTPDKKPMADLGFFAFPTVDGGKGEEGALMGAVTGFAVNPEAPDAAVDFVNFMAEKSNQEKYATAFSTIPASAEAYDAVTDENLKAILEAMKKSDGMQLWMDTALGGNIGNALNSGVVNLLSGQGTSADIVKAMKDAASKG

BpAXBP1 = target: T2, BpAXBP1 (Bifidobacterium pseudocatenulatum, UniProt A0A087BW54); assay type: binding
T2 construct: predicted signal peptide removed, N-terminal His tag (pCold I), E. coli BL21; primers encode native start ACGGGTN after IEGRH linker and end KNLKVKK; immobilised on CM5 chip
T2 sequence (A0A087BW54 25-563): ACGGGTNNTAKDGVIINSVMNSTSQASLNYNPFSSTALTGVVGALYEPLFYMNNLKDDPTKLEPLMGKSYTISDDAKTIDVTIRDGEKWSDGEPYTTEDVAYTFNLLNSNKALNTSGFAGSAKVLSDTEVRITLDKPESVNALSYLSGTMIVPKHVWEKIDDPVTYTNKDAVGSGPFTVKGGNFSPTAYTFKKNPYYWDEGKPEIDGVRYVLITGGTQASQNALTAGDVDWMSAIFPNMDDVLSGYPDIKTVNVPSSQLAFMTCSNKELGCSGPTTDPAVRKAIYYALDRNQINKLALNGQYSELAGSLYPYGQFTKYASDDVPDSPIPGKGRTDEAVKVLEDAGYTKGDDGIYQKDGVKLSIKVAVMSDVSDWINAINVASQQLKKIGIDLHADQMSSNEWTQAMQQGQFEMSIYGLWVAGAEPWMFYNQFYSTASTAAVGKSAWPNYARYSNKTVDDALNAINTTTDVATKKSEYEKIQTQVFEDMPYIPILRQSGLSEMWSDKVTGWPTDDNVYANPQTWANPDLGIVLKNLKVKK

BpAXBP2 = target: T3, BpAXBP2; set-up: species or system Bifidobacterium pseudocatenulatum
T3 construct: gene BBPC_RS02280; predicted signal peptide removed, N-terminal His tag (pCold I), E. coli BL21; primers encode native start ASKDEN after IEGRH linker and end ALPTE; immobilised on CM5 chip

Kd (BpAXBP3) [µM] | Kd (BpAXBP1; read-out: Kd) [µM] | Kd (BpAXBP2) [µM] | SMILES | Kd (BpAXBP1)
< 100 | – | 0.66 | OC[C@@H]1O[C@@H](O[C@@H]2[C@@H](O)[C@H](O[C@@H]3COC(O)[C@H](O)[C@H]3O)OC[C@H]2O)[C@H](O)[C@H]1O (stereo partly drawn) [AXOS1, 3^2-α-L-arabinofuranosyl-xylobiose] | –
– | – | 0.69 | OC[C@@H]1O[C@@H](O[C@@H]2[C@@H](O[C@@H]3O[C@@H](CO)[C@H](O)[C@H]3O)[C@H](O[C@@H]3CO[C@@H](O[C@@H]4COC(O)[C@H](O)[C@H]4O)[C@H](O)[C@H]3O)OC[C@H]2O)[C@H](O)[C@H]1O (stereo partly drawn) [AXOS2, 2^3,3^3-di-α-L-arabinofuranosyl-xylotriose] | –
< 100 | – | 19.2 | OC[C@@H]1O[C@@H](O[C@H]2[C@H](O[C@@H]3CO[C@@H](O[C@@H]4COC(O)[C@H](O)[C@H]4O)[C@H](O)[C@H]3O)OC[C@@H](O)[C@@H]2O)[C@H](O)[C@H]1O (stereo partly drawn) [AXOS3, 2^3-α-L-arabinofuranosyl-xylotriose] | –
< 100 | 7.5 | 103 | OC[C@@H]1O[C@@H](O[C@@H]2[C@@H](O)[C@H](O[C@@H]3CO[C@@H](O[C@@H]4COC(O)[C@H](O)[C@H]4O)[C@H](O)[C@H]3O)OC[C@H]2O[C@@H]2OC[C@@H](O)[C@H](O)[C@H]2O)[C@H](O)[C@H]1O (stereo partly drawn) [AXOS4, 3^3-α-L-arabinofuranosyl-xylotetraose] | –

Further lines, the compound ahead of its results:

SMILES | Kd (BpAXBP3) [µM] | Kd (BpAXBP1; read-out: Kd) [µM] | Kd (BpAXBP2) [µM] | Kd (BpAXBP1)
OC1OC[C@@H](O[C@@H]2OC[C@@H](O[C@@H]3OC[C@@H](O[C@@H]4OC[C@@H](O[C@@H]5OC[C@@H](O)[C@H](O)[C@H]5O)[C@H](O)[C@H]4O)[C@H](O)[C@H]3O)[C@H](O)[C@H]2O)[C@H](O)[C@H]1O (stereo partly drawn) [XOS5, xylopentaose] | < 100 | 1.5 | – | –
OC1OC[C@@H](O[C@@H]2OC[C@@H](O[C@@H]3OC[C@@H](O)[C@H](O)[C@H]3O)[C@H](O)[C@H]2O)[C@H](O)[C@H]1O (stereo partly drawn) [XOS3, xylotriose] | < 100 | 18.7 | – | –
OC1OC[C@@H](O[C@@H]2OC[C@@H](O)[C@H](O)[C@H]2O)[C@H](O)[C@H]1O (stereo partly drawn) [XOS2, xylobiose] | < 100 | – | – | BpAXBP1 exhibited a high affinity for XOS and AXOS4
OC1OC[C@@H](O[C@@H]2OC[C@@H](O[C@@H]3OC[C@@H](O[C@@H]4OC[C@@H](O[C@@H]5OC[C@@H](O[C@@H]6OC[C@@H](O)[C@H](O)[C@H]6O)[C@H](O)[C@H]5O)[C@H](O)[C@H]4O)[C@H](O)[C@H]3O)[C@H](O)[C@H]2O)[C@H](O)[C@H]1O (stereo partly drawn) [XOS6, xylohexaose] | < 100 | 8.2 | – | –
OC1OC[C@@H](O[C@@H]2OC[C@@H](O[C@@H]3OC[C@@H](O[C@@H]4OC[C@@H](O)[C@H](O)[C@H]4O)[C@H](O)[C@H]3O)[C@H](O)[C@H]2O)[C@H](O)[C@H]1O (stereo partly drawn) [XOS4, xylotetraose] | < 100 | 0.63 | – | –

From article PMC7688211, “Multiple Transporters and Glycoside Hydrolases Are Involved in Arabinoxylan-Derived Oligosaccharide Utilization in Bifidobacterium pseudocatenulatum” (Applied and Environmental Microbiology, 2020)
